Source: ChEMBL document CHEMBL1240343, “Transition state analogs of 5'-methylthioadenosine nucleosidase disrupt quorum sensing” (Nat Chem Biol, 2009)
Calls of active or inactive are those of the source. No cut-off for these calls is given here.

Key:
[1] = biological target: T1, 5'-methylthioadenosine/S-adenosylhomocysteine nucleosidase (Vibrio cholerae serotype O1 (strain ATCC 39315 / El Tor Inaba N16961), UniProt Q9KPI8); test: Binding affinity to His-tagged Vibrio cholerae recombinant MTAN expressed in Escherichia coli […]
T1 sequence (Q9KPI8 whole entry): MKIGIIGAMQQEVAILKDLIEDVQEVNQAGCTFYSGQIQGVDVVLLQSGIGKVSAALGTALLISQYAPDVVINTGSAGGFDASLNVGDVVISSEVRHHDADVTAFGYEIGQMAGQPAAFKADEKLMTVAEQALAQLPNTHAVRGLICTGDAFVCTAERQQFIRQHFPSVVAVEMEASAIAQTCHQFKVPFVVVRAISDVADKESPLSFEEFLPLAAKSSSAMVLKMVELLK

[2] = biological target: 5'-methylthioadenosine/S-adenosylhomocysteine nucleosidase (Escherichia coli O157:H7, UniProt P0AF14); test: (§1) Inhibition of Escherichia coli O157:H7 EDL933 MTAN-mediated autoinducer-2 production assessed as inhibition of light induction in quorum-sensing Vibrio harveyi BB120 by luminescence induction assay
[3] = biological target: 5'-methylthioadenosine/S-adenosylhomocysteine nucleosidase (Escherichia coli O157:H7) (UniProt P0AF14); test: as §1
[4] = biological target: T2, 5'-methylthioadenosine/S-adenosylhomocysteine nucleosidase (Vibrio cholerae serotype O1 (strain ATCC 39315 / El Tor Inaba N16961)) (UniProt Q9KPI8); conditions: 1 uM
T2 sequence (whole entry): T1 sequence (Q9KPI8 whole entry)

[5] = Inhibition of Escherichia coli MTAN
Escherichia coli [6] = test: Antibacterial activity MTAN-deficient Escherichia coli assessed as induction of growth deffect at 0.5 uM after 16 hrs; type: functional, organism-based
Vibrio cholerae [7] = test: Antimicrobial activity against Vibrio cholerae N16961 assessed as effect on cell growth up to 1 uM; type: functional, organism-based
[8] = biological target: T2, 5'-methylthioadenosine/S-adenosylhomocysteine nucleosidase (Vibrio cholerae serotype O1 (strain ATCC 39315 / El Tor Inaba N16961)); conditions: 1 uM; remark: listed apart in the source
Escherichia coli [9] = test: Antibacterial activity Escherichia coli O157:H7 EDL933 assessed as induction of growth deffect at 0.5 uM after 16 hrs; type: functional, organism-based
Vibrio cholerae [10] = test: Antibacterial activity against Vibrio cholerae N16961 at 2.5 uM; type: functional, organism-based
Escherichia coli [11] = test: Antibacterial activity Escherichia coli O157:H7 EDL933 at 1 uM; type: functional, organism-based
Vibrio cholerae [12] = test: Antibacterial activity against Vibrio cholerae N16961 at 1 uM after 24 hrs; type: functional, organism-based
Escherichia coli [13] = test: Antibacterial activity against Escherichia coli O157:H7 EDL933 at 1 uM after 24 hrs; type: functional, organism-based
Vibrio cholerae [14] = test: Inhibition of Vibrio cholerae N16961 biofilm production at 1 uM after 24 hrs; type: functional; conditions: N16961, 24 h
Vibrio harveyi = test: Inhibition of autoinducer-2 production in Vibrio harveyi BB120 assessed as inhibition of light induction by luminescence induction assay; type: functional; conditions: Vibrio harveyi ATCC BAA-1116
Escherichia coli [15] = test: Inhibition of Escherichia coli O157:H7 EDL933 biofilm production at 1 uM after 24 hrs; type: functional; conditions: O157:H7 EDL933, 24 h
Vibrio cholerae [16] = test: Antibacterial activity against Vibrio cholerae N16961 at 1 uM; type: functional, organism-based
Escherichia coli [17] = test: Antibacterial activity Escherichia coli O157:H7 EDL933 at 2.5 uM; type: functional, organism-based
Escherichia coli [18] = test: Ratio of Km to Ki for Escherichia coli MTAN

Sequence of 5'-methylthioadenosine/S-adenosylhomocysteine nucleosidase (Escherichia coli O157:H7) (P0AF14 whole entry, looked up): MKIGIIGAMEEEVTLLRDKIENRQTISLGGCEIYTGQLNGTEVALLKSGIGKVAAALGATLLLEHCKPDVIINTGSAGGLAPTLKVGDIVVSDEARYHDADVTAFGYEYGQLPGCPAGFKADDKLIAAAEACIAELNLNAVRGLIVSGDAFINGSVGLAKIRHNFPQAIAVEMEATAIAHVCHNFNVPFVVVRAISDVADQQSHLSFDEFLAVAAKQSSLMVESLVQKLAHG
Sequence of 5'-methylthioadenosine/S-adenosylhomocysteine nucleosidase (Escherichia coli O157:H7, UniProt P0AF14) (P0AF14 whole entry): as the sequence (P0AF14 whole entry, looked up) above

Work on `Nc1ncnc2c([C@@H]3N[C@H](CSc4ccc(Cl)cc4)[C@@H](O)[C@H]3O)c[nH]c12` yielded a Kd [1] of 2200 pM.
In the case of `CSC[C@H]1CN(Cc2c[nH]c3c(N)ncnc23)C[C@@H]1O`, the IC50 [2] is reported as 600000 pM, the inhibition [3] is reported as “Dose-dependent effect” and the inhibition [4] is reported as “Active”. For the same compound, the Kd [5] was 0.2 pM, the Activity (Escherichia coli [6]) was “inactive” and the Activity (Vibrio cholerae [7]) was “inactive”. For the same compound, the inhibition [8] was “Active” and the Activity (Escherichia coli [9]) was “inactive”.
In the case of `CSC[C@H]1N[C@@H](c2c[nH]c3c(N)ncnc23)[C@H](O)[C@@H]1O`, the Kd [1] is reported as 10000 pM.
`Nc1ncnc2c([C@@H]3N[C@H](CSCc4ccccc4)[C@@H](O)[C@H]3O)c[nH]c12` showed a Kd [1] of 2100 pM.
Compound `CCSC[C@H]1N[C@@H](c2c[nH]c3c(N)ncnc23)[C@H](O)[C@@H]1O` has a Kd [1] of 1600 pM.
With `CCCCSC[C@H]1CN(Cc2c[nH]c3c(N)ncnc23)C[C@@H]1O` the inhibition [3] was “Dose-dependent effect”, the Activity (Vibrio cholerae [10]) was “inactive” and the Activity (Escherichia coli [11]) was “inactive”. The Activity (Vibrio cholerae [12]) was “inactive”, the Activity (Escherichia coli [13]) was “inactive” and the Kd [5] was 0.3 pM. The Activity (Escherichia coli [6]) was “inactive”, the inhibition at 1 µM (Vibrio cholerae [14]) was 71% and the inhibition (Vibrio harveyi) was “inactive”. For the same compound, the Activity (Vibrio cholerae [7]) was “inactive”, the inhibition at 1 µM (Escherichia coli [15]) was 18% and the Activity (Escherichia coli [9]) was “inactive”. The Activity (Vibrio cholerae [16]) was “inactive” and the Activity (Escherichia coli [17]) was “inactive”.
`Nc1ncnc2c(CN3C[C@H](CSCc4ccccc4)[C@@H](O)C3)c[nH]c12` gave a Kd [1] of 64 pM.
Compound `Nc1ncnc2c(CN3C[C@H](CSc4ccc(Cl)cc4)[C@@H](O)C3)c[nH]c12` has a Kd [1] of 330 pM, a Ratio (Escherichia coli [18]) of 1e+08 and a Kd [5] of 0.047 pM. For the same compound, the Activity (Vibrio cholerae [7]) was “inactive”.
With `CCSC[C@H]1CN(Cc2c[nH]c3c(N)ncnc23)C[C@@H]1O` the Activity (Vibrio cholerae [7]) was “inactive”.
